From patent publication US6117661A, “Mutant mono-oxygenase cytochrome P450cam” (BG plc, priority 1995, dated 2000)
Where two headings read alike, the source gives them in different places.

What was measured:
P450cam Mutant Y96A = P450cam Mutant Y96A (Pseudomonas putida, UniProt P00183, C335A/Y97A); type: binding, P. putida; details: for Mutant Y96A ΔSpin high/low: -- = no shift, nd = not determined
Wild type P450cam [1] = molecular target: T1, Wild type P450cam (Pseudomonas putida, UniProt P00183); type: binding, P. putida; details: for Wild type ΔSpin high/low: -- = no shift, nd = not determined; for haem spin-state conversion on substrate binding: Soret band 418 nm to 392 nm
[2] = molecular target: T2, P450cam Y96A (also contains the C334A mutation) (Pseudomonas putida, UniProt P00183, C335A/Y97A); type: biochemical, P. putida; details: small alkanes
T2 construct: reconstituted with putidaredoxin and putidaredoxin reductase
Description: (§1) A buffered solution (50 mM Tris.HCI, pH 7.4), typically 3 ml in volume, containing 10 uM putidaredoxin, 2 uM putidaredoxin reductase, 1 uM cytochrome P-450cam mono-oxygenase (wild-type or mutant), 200 mM KCI, 50 ug/ml bovine liver catalase (Sigma), and 1 mM target organic compound such as cyclohexylbenzene (added as a 0.1 M stock in ethanol) was preincubated at 30° C. for 5 minutes. The enzymatic reaction was initiated by adding NADH to a total concentration of 2 mM. Further four aliquots of NADH (to increase the NADH concentration by 1 mM each time) were added in intervals of 10 minutes, and 30 minutes into the incubation one aliquot of substrate (to increase the concentration by 1 mM) was also added. The reaction was quenched after 60 minutes by adding 0.5 ml chloroform and vortexing the mixture. The phases were separated by centrifugation (4000 g) at 4° C. The chloroform layer was analyzed by gas chromatography.
(§2) The NADH concentration can be monitored at 340 nm and, in all cases, more substrates and NADH are added during the incubation.
(§3) Turnover rate measured as NADH consumption rate
(§4) (nmole NADH/nmole P450cam/s).

Wild type P450cam [3] = molecular target: T1, Wild type P450cam; assay: Turnover rate measured as NADH consumption rate; type: biochemical, P. putida; details: small alkanes; background about 0.07
Description: as §1, §2, §3, §4

[4] = molecular target: T3, P450cam active site mutant Y96F (also C334A) (Pseudomonas putida, UniProt P00183, C335A/Y97F); type: biochemical, P. putida; details: label = product
T3 construct: reconstituted with putidaredoxin and putidaredoxin reductase
Description: as §1
(§5) For many substrate compounds such as cyclohexylbenzene for which not all the P-450cam-mediated oxidation products are commercially available, the chloroform extracts are evaporated to dryness under a stream of nitrogen. The residues were extracted with hexane and the oxidation products separated by high performance liquid chromatography, eluting with a hexane/isopropanol gradient. The purified products were then identified by mass spectroscopy and particularly nuclear magnetic resonance spectroscopy.
as §2

[5] = molecular target: T4, P450cam active site mutant Y96A (also C334A) (Pseudomonas putida, UniProt P00183, C335A/Y97A); type: biochemical, P. putida; details: label = product
T4 construct: reconstituted with putidaredoxin and putidaredoxin reductase
Description: as §1, §5, §2

| SMILES | Mutant Y96A Vs DTT (P450cam Mutant Y96A) | Mutant Y96A ΔSpin high/low (P450cam Mutant Y96A) | Wild type Vs DTT (Wild type P450cam [1]) | other results |
| --- | --- | --- | --- | --- |
| c1ccc2c(c1)CCCC2 [1,2,3,4-Tetrahydro naphthalene] | 40 | 40 | 10 | Wild type ΔSpin high/low (Wild type P450cam [1]): 5 |
| C1=Cc2ccccc2CC1 [1,2-Dihydronaphthalene] | 90 | 30 | 20 | Wild type ΔSpin high/low (Wild type P450cam [1]): 5 |
| CCc1cccc2ccccc12 [1-Ethylnaphthalene] | 20 | 5 | – | – |
| CCCC(=O)Oc1cccc2ccccc12 [1-Naphthylbutyrate] | 5 | – | 5 | – |
| CCC(=O)Oc1cccc2ccccc12 [1-Naphthylpropionate] | 20 | 0 | 20 | – |
| CC(C)CC(C)(C)C [2,2,4-trimethyl pentane] | – | – | – | Turnover rate (NADH consumption rate) Y96A [2]: 5.3 nmole NADH/nmole P450cam/s; Turnover rate (NADH consumption rate) Wild type (Wild type P450cam [3]): 0.9 nmole NADH/nmole P450cam/s |
| CCC(C)(C)C [2,2-dimethyl butane] | – | – | – | Turnover rate (NADH consumption rate) Y96A [2]: 14.0 nmole NADH/nmole P450cam/s; Turnover rate (NADH consumption rate) Wild type (Wild type P450cam [3]): background |
| CCCC(C)(C)C [2,2-dimethyl pentane] | – | – | – | Turnover rate (NADH consumption rate) Y96A [2]: 12.8 nmole NADH/nmole P450cam/s; Turnover rate (NADH consumption rate) Wild type (Wild type P450cam [3]): 5.2 nmole NADH/nmole P450cam/s |
| CC(C)C(C)C [2,3-dimethyl butane] | – | – | – | Turnover rate (NADH consumption rate) Y96A [2]: 16.8 nmole NADH/nmole P450cam/s; Turnover rate (NADH consumption rate) Wild type (Wild type P450cam [3]): background |
| CC(C)CC(C)C [2,4-dimethyl pentane] | – | – | – | Turnover rate (NADH consumption rate) Y96A [2]: 12.6 nmole NADH/nmole P450cam/s; Turnover rate (NADH consumption rate) Wild type (Wild type P450cam [3]): 0.2 nmole NADH/nmole P450cam/s |
| CCc1ccc2ccccc2c1 [2-Ethylnaphthalene] | 20 | 10 | – | – |
| O=Cc1ccc2c(c1)Cc1ccccc1-2 [2-Fluorencarboxaldehyde] | 50 | – | – | – |
| CCCCC(C)O (stereo not shown) [2-hexanol] | – | – | – | Products(%) Y96F ([4]; substrate hexane): 24%; Products(%) Y96A ([5]; substrate hexane): 26% |
| CCCCC(C)=O [2-hexanone] | – | – | – | Products(%) Y96F ([4]; substrate hexane): 10%; Products(%) Y96A ([5]; substrate hexane): 15% |
| CCC(C)C [2-methyl butane] | – | – | – | Turnover rate (NADH consumption rate) Y96A [2]: 4.6 nmole NADH/nmole P450cam/s; Turnover rate (NADH consumption rate) Wild type (Wild type P450cam [3]): background |
| CCCCCC(C)C [2-methyl heptane] | – | – | – | Turnover rate (NADH consumption rate) Y96A [2]: 2.1 nmole NADH/nmole P450cam/s; Turnover rate (NADH consumption rate) Wild type (Wild type P450cam [3]): background |
| CCCC(C)C [2-methyl pentane] | – | – | – | Turnover rate (NADH consumption rate) Y96A [2]: 11.7 nmole NADH/nmole P450cam/s; Turnover rate (NADH consumption rate) Wild type (Wild type P450cam [3]): 3.8 nmole NADH/nmole P450cam/s |
| CCCCC(C)(C)O [2-methyl-2-hexanol] | – | – | – | Products(%) Y96F ([4]; substrate 2-methyl hexane): 72%; Products(%) Y96A ([5]; substrate 2-methyl hexane): 74% |
| CCCC(O)C(C)C (stereo not shown) [2-methyl-3-hexanol] | – | – | – | Products(%) Y96F ([4]; substrate 2-methyl hexane): 7%; Products(%) Y96A ([5]; substrate 2-methyl hexane): 4% |
| CCC(CC)CC [3-ethyl pentane] | – | – | – | Turnover rate (NADH consumption rate) Y96A [2]: 16.2 nmole NADH/nmole P450cam/s; Turnover rate (NADH consumption rate) Wild type (Wild type P450cam [3]): background |

| SMILES | Mutant Y96A Vs DTT (P450cam Mutant Y96A) | Mutant Y96A ΔSpin high/low (P450cam Mutant Y96A) | Wild type Vs DTT (Wild type P450cam [1]) | other results |
| --- | --- | --- | --- | --- |
| CCCC(O)CC (stereo not shown) [3-hexanol] | – | – | – | Products(%) Y96F ([4]; substrate hexane): 50%; Products(%) Y96A ([5]; substrate hexane): 32% |
| CCCC(=O)CC [3-hexanone] | – | – | – | Products(%) Y96F ([4]; substrate hexane): 16%; Products(%) Y96A ([5]; substrate hexane): 28% |
| CCC(C)CC [3-methyl pentane] | – | – | – | Turnover rate (NADH consumption rate) Y96A [2]: 14.2 nmole NADH/nmole P450cam/s; Turnover rate (NADH consumption rate) Wild type (Wild type P450cam [3]): 1.3 nmole NADH/nmole P450cam/s |
| CCCC(C)CCC [4-methyl heptane] | – | – | – | Turnover rate (NADH consumption rate) Y96A [2]: 10.2 nmole NADH/nmole P450cam/s; Turnover rate (NADH consumption rate) Wild type (Wild type P450cam [3]): 1.4 nmole NADH/nmole P450cam/s |
| CC(C)CCC(C)O (stereo not shown) [5-methyl-2-hexanol] | – | – | – | Products(%) Y96F ([4]; substrate 2-methyl hexane): 5%; Products(%) Y96A ([5]; substrate 2-methyl hexane): 8% |
| CC(=O)CCC(C)C [5-methyl-2-hexanone] | – | – | – | Products(%) Y96F ([4]; substrate 2-methyl hexane): 16%; Products(%) Y96A ([5]; substrate 2-methyl hexane): 14% |
| O=C1c2ccccc2-c2ccccc21 [9-Fluorenone] | 5 | – | 20 | – |
| CC1(C)[C@@H]2CC[C@@]1(C)C(=O)C2=O [(1R)-(-)-Camphorquinone] | 80 | 80 | 80 | Wild type ΔSpin high/low (Wild type P450cam [1]): 80 |
| CC1(C)C(=O)[C@]2(C)CC[C@H]1C2 [(1R)-(-)-Fenchone] | 80 | 50 | 70 | Wild type ΔSpin high/low (Wild type P450cam [1]): 40 |
| C=C(C)[C@H]1CC=C(C)C(=O)C1 [(S)-(+)-Carvone] | 80 | 10 | 60 | Wild type ΔSpin high/low (Wild type P450cam [1]): 10 |
| O=C1c2ccccc2Cc2ccccc21 [Anthrone] | 5 | – | 5 | – |
| c1ccc(COCc2ccccc2)cc1 [Benzylether] | – | 55 | 5 | – |
| c1ccc(CCc2ccccc2)cc1 [Bibenzyl] | 55 | 55 | – | – |
| c1ccc(-c2ccccc2)cc1 [Biphenyl] | 90 | – | 20 | – |
| C1CCCCC1 [Cyclohexane] | 60 | 60 | – | – |
| C1=CCCCC1 [Cyclohexene] | 40 | 40 | 5 | – |
| O=C(c1ccccc1)C1CCCCC1 [Cyclohexylphenylketone] | – | 60 | 30 | – |
| C1=CC2C3C=CC(C3)C2C1 (stereo not shown) [Dicyclopentadiene] | 90 | 90 | 80 | Wild type ΔSpin high/low (Wild type P450cam [1]): 50 |
| c1ccc(Oc2ccccc2)cc1 [Diphenylether] | 50 | 20 | 5 | Wild type ΔSpin high/low (Wild type P450cam [1]): 10 |
| c1ccc(Cc2ccccc2)cc1 [Diphenylmethane] | – | 45 | 5 | – |

| SMILES | Mutant Y96A Vs DTT (P450cam Mutant Y96A) | Mutant Y96A ΔSpin high/low (P450cam Mutant Y96A) | Wild type Vs DTT (Wild type P450cam [1]) | other results |
| --- | --- | --- | --- | --- |
| CCc1ccccc1 [Ethylbenzene] | – | 40 | – | – |
| c1ccc2c(c1)Cc1ccccc1-2 [Fluorene] | 50 | – | – | – |
| C=CC(=C)C [Isoprene] | 10 | 10 | – | – |
| CC1CCCCC1 [Methylcyclohexane] | 70 | 100 | 50 | Wild type ΔSpin high/low (Wild type P450cam [1]): 50 |
| c1ccc(CNc2ccccc2)cc1 [N-Phenylbenzylamine] | – | 45 | 5 | – |
| CCCCCCCC/C=C\CCCCCCCC(=O)O [Oleic acid] | ~20 | – | ~10 | – |
| O=C(Oc1ccccc1)c1ccccc1 [Phenylbenzoate] | – | – | 5 | – |
| CCCCCCCCCCCCOS(=O)(=O)O [SDS] | 60 | – | 20 | – |
| CC(C)CCCC(C)CCCC(C)CCCCC(C)CCCC(C)CCCC(C)C (stereo not shown) [Squalane] | 20 | – | – | – |
| C=Cc1ccccc1 [Styrene] | 30 | 30 | – | – |
| Cc1ccccc1 [Toluene] | 30 | 30 | – | – |
| C1C2CC3CC1CC(C2)C3 [adamantane, reference compound] | – | – | – | haem spin-state conversion on substrate binding (Wild type P450cam [1]): fully converted the haem to the 5-co-ordinated, high-spin form |
| O=C1C2CC3CC(C2)CC1C3 [adamantanone, reference compound] | – | – | – | haem spin-state conversion on substrate binding (Wild type P450cam [1]): fully converted the haem to the 5-co-ordinated, high-spin form |
| C(=C/c1ccccc1)/c1ccccc1 [cis-Stilbene] | 50 | 40 | 20 | – |
| C1CCCCCC1 [cycloheptane] | – | – | – | Turnover rate (NADH consumption rate) Y96A [2]: 42.5 nmole NADH/nmole P450cam/s; Turnover rate (NADH consumption rate) Wild type (Wild type P450cam [3]): 4.4 nmole NADH/nmole P450cam/s |
| CCCCCCCCCCCC [n-Dodecane] | 5 | 5 | – | – |
| CCCCCCCCC [n-Nonane] | 45 | 70 | – | – |
| CCCCCCCCCCC [n-Undecane] | 20 | 20 | – | – |
| C1CC2CCC1C2 [norbornane, reference compound] | – | – | – | haem spin-state conversion on substrate binding (Wild type P450cam [1]): fully converted the haem to the 5-co-ordinated, high-spin form |
| C1CC[C@H]2CCCC[C@@H]2C1 [trans-Decahydro naphthalene] | 70 | 90 | 10 | Wild type ΔSpin high/low (Wild type P450cam [1]): 20 |
